Reference: US8575338B2, “Pyrimidine, pyridine and triazine derivatives as maxi-K channel openers” (Mitsubishi Tanabe Pharma Corporation, priority 2008, dated 2013)

Target: T1, Cox-1 (Rattus norvegicus, UniProt Q63921)
T1 construct: from tissue; host or cells: rat whole blood ('ratWB')
T1 sequence (Q63921 27-602): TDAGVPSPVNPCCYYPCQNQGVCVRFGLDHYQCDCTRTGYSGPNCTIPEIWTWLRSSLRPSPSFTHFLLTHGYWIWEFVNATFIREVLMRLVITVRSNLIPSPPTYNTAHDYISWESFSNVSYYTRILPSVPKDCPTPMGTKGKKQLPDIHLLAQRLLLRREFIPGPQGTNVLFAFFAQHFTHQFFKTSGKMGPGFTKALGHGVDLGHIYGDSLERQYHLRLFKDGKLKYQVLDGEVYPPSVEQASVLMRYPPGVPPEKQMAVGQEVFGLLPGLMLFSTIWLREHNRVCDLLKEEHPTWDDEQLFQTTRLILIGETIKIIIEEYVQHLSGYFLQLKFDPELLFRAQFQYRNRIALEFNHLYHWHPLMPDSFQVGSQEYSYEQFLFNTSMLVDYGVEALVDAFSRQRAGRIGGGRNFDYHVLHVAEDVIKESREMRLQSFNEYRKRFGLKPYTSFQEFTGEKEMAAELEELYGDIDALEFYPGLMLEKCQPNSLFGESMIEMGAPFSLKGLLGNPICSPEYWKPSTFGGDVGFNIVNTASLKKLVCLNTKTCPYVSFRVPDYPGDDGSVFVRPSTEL
Experiment: COXs inhibition, rat whole blood Cox-1
Assay type: cell-based
Conditions: read-out: ratWB Cox-1 IC50
Procedure: Methods for Testing Compounds on Inhibiting COXs
Activities of inhibiting COXs can be investigated by the manner described in Proc. Natl. Acad. Sci. USA 96, 7563, […].
As a result, compounds of the present invention are less or no potent COXs inhibitors. A result of COXs inhibition of the selected compounds (Example Nos. 1, 3, 12, 188, 474, 497, 507, 513, 527, 533, 562, and 638) are: ratWB Cox-1 IC50>30 μM and ratWB IC50>30 μM.

IC50, > 30 µM:
O=C(O)COc1cc(-c2ccc(Cl)c(F)c2)nc(-c2ccc(F)cc2)n1 [Example 188]
O=C(O)COc1cc(N2CCc3ccccc32)nc(-c2ccc(Cl)c(F)c2)n1 [Example 3]
CC(C)(Oc1cc(N2CCCCC2)nc(-c2ccc(Cl)c(F)c2)n1)C(=O)O [Example 1]
